# Data: patent US8729075B2, “Glucosylceramide synthase inhibition for the treatment of collapsing glomerulopathy and other glomerular disease” (Genzyme Corporation, priority 2008, dated 2014)
# System: GM3
# Test: GM3 Elisa assay
# Type: cell-based
# Settings: 48 h, Table 2; B16-FO cells, 2 days incubation; read-out: IC50_uM_Mean
# Procedure: B16-FO cells from ATCC (American Tissue Culture Collection) were grown in DMEM media (ATCC) with 10% Fetal Bovine Serum (Hyclone) and Pen/Step/Glutamine (Biowhittaker). 4000 cells per well were plated on collagen coated plates (BD) and allowed to attach for 6 hours in an incubator (37 degrees, 5% CO2). After 6 hours the compounds and controls were added to the wells, the plates mixed and returned to the incubator for 2 days. Day of assay the cells were fixed for 20 minutes with 1% formaldehyde and then washed with Tris Buffered Saline (TBS) 3 times, 150 μl of TBS was left in the wells and 50 μl of goat serum (Invitrogen) was added, the plates mixed and incubated for 1 hour at room temperature. The plates were flicked and the cells incubated with the monoclonal Antibody to GM3 (NeuAc) (Cosmo) for 45 minutes as room temperature. The plates were then washed 3 times with TBS, leaving 150 μl of TBS in the wells and Peroxidase AffinPure F (ab′) 2 frag Gt Anti-mouse IgM, μ Chain Specific (Jackson Immno Research) was added in 50 μl, the plates mixed and incubated for 45 minutes at room temperature. The plates were washed 3 times with TBS, flicked and blotted and 100 μl of Quantablu (Pierce) was added to the wells and incubated for 1 hour then read on a Fluorometer at Ex 325 and Em 420. The data was then analyzed using standard programs.
row,IC50,SMILES
1,≤ 100 nM,COC(=O)CO[C@H](c1ccc2c(c1)OCO2)[C@@H](CN1CCCC1)NC(=O)CCOc1ccc(OC)cc1 [Compound 275]
2,≤ 100 nM,Cc1ccc(C(=O)CCC(=O)N[C@H](CC2CCCC2)[C@H](O)c2ccc3c(c2)CCCC3)cc1 [Compound 264]

# Same assay, conditions: 48 h, Table 3; B16-FO cells, 2 days incubation; read-out: IC50_uM_Mean
row,IC50,SMILES
1,100 to 1000 nM,O=C(CCCCCC1CCOCC1)N[C@H](CN1CC[C@@H](F)C1)[C@H](O)c1cccc(OCc2ccccc2)c1 [Compound 574]
2,100 to 1000 nM,O=C(CCCCOCC(F)(F)F)N[C@H](CN1CCCC1)[C@H](O)c1ccc(CCc2ccccc2)cc1 [Compound 647]
3,100 to 1000 nM,O=C(CCCCS(=O)(=O)C12CC3CCCC(C1)C(C3)C2)N[C@H](CN1CCCC1)[C@@H](O)c1ccc2c(c1)OCCO2 (stereo partly shown) [Compound 560]
4,1000 to 3000 nM,CCCCOc1ccc([C@@H](O)[C@@H](CN2CC[C@@H](O)C2)NC(=O)CCCCCOCCF)cc1 [Compound 661]
5,≤ 100 nM,COc1ccc(C(=O)CCCCC(=O)NC(CN2CCCC2)[C@H](O)c2ccc(OCCC3CCCCC3)cc2)cc1 (stereo partly shown) [Compound 419]
6,100 to 1000 nM,COC[C@@H]1CCCN1CC(NC(=O)CCCCCC(=O)c1ccc(OC)cc1)[C@@H](O)c1ccc2c(c1)OCCO2 (stereo partly shown) [Compound 533]
7,100 to 1000 nM,COCOc1ccc(C(=O)CCCC(=O)N[C@H](CN2CC[C@H](O)C2)[C@H](O)c2ccc(OC(C)C)cc2)cc1 [Compound 737]
8,100 to 1000 nM,COc1ccc(C(=O)CCCCCC(=O)N[C@H](CN2CC[C@@H](O)C2)[C@@H](O)c2ccc3c(c2)OCCO3)cc1 [Compound 518]
9,3000 to 10000 nM,COc1ccc(OCCC(=O)NC(CN2[C@H](C)CC[C@H]2C)[C@H](O)c2ccc3c(c2)OCCO3)cc1 (stereo partly shown) [Compound 550]
10,1000 to 3000 nM,COc1ccc(C(=O)CCCCCC(=O)NC(CN2[C@H](C)CC[C@H]2C)[C@H](O)c2ccc3c(c2)OCCO3)cc1 (stereo partly shown) [Compound 548]
11,3000 to 10000 nM,Cc1nccn1C[C@@H](NC(=O)CCCCCC(=O)c1ccc(F)cc1)[C@H](O)c1ccc2c(c1)OCCO2 [Compound 569]
12,3000 to 10000 nM,CCCCCCCC(=O)N[C@H](CN1CCC(C)(C)C1)[C@@H](O)c1ccc2c(c1)OCCO2 [Compound 521]
13,1000 to 3000 nM,COc1ccc([C@@H](O)[C@@H](CN2CCCC2)NC(=O)CCCCCC(C)=O)cc1 [Compound 664]
14,≤ 100 nM,COc1ccc(C(=O)CCCCCC(=O)N[C@H](CN2CCC[C@@H]2C)[C@H](O)c2ccc3c(c2)OCCO3)cc1 [Compound 525]
15,3000 to 10000 nM,COc1ccc(OCCC(=O)N[C@H](CN2C(C)CCCC2C)[C@@H](O)c2ccc3c(c2)OCCO3)cc1 (stereo partly shown) [Compound 598]
16,3000 to 10000 nM,CCCCCCCCCCCCCCCC(=O)N[C@H](CN(C)Cc1ccccc1)[C@@H](O)c1ccc2c(c1)OCCO2 [Compound 682]
17,≤ 100 nM,COCCOc1ccc(C(O)[C@@H](CN2CCCC2)NC(=O)CCCCC(=O)c2ccc(OC)cc2)cc1 (stereo partly shown) [Compound 417]
18,3000 to 10000 nM,COC[C@H]1CCCN1C[C@@H](NC(=O)CCOc1ccc(OC)cc1)[C@H](O)c1ccc2c(c1)OCCO2 [Compound 538]
19,100 to 1000 nM,CCCNC[C@@H](NC(=O)CCCCCC(=O)c1ccc(OC)cc1)[C@H](O)c1ccc2c(c1)OCCO2 [Compound 467]
20,100 to 1000 nM,CCCCOc1ccc([C@@H](O)[C@@H](CN2CC[C@@H](F)C2)NC(=O)CCCCCCCOC)cc1 [Compound 584]
21,≤ 100 nM,COc1ccc(C(=O)CCCCCC(=O)N[C@H](CN2CCC[C@H]2C)[C@H](O)c2ccc3c(c2)OCCO3)cc1 [Compound 529]
22,3000 to 10000 nM,CCCCCCCC(=O)NC(CN1[C@H](C)CC[C@H]1C)[C@H](O)c1ccc2c(c1)OCCO2 (stereo partly shown) [Compound 549]
23,1000 to 3000 nM,CCCCCCCC(=O)N[C@H](CN1CCC[C@@H]1C)[C@H](O)c1ccc2c(c1)OCCO2 [Compound 527]
24,100 to 1000 nM,COc1ccc(C(=O)CCCCCC(=O)N[C@H](CNC(C)C)[C@@H](O)c2ccc3c(c2)OCCO3)cc1 [Compound 465]
25,3000 to 10000 nM,COc1ccc(CCCCN(C(=O)CCCCC(=O)c2ccc(OC)cc2)[C@H](CN2CCCC2)[C@H](O)c2ccc(O)cc2)cc1 [Compound 429]
26,1000 to 3000 nM,COc1ccc(OCCC(=O)N[C@H](CN2CCC[C@H]2C)[C@H](O)c2ccc3c(c2)OCCO3)cc1 [Compound 528]
27,100 to 1000 nM,COc1ccc(OCCC(=O)N[C@H](CN2CCC[C@@H]2C)[C@H](O)c2ccc3c(c2)OCCO3)cc1 [Compound 526]
28,3000 to 10000 nM,N#CCCCCCC(=O)C[C@H](CN1CCCC1)[C@H](O)c1ccc2c(c1)OCCO2 [Compound 632]
29,1000 to 3000 nM,COc1ccc(C(=O)CCCCCC(=O)N[C@H](CN2CCC(C)(C)C2)[C@@H](O)c2ccc3c(c2)OCCO3)cc1 [Compound 520]
30,3000 to 10000 nM,Cc1noc(CCCCC(=O)N[C@@H](CC2CCCC2)[C@H](O)c2ccc3c(c2)OCCO3)n1 [Compound 652]

row,SMILES,IC50
1,COc1ccc(OCCC(=O)N[C@@H](CN2CCCC2)[C@H](O)c2ccc3c(c2)OCCO3)cc1 [Compound 675],3000 to 10000 nM
2,COc1ccc(OCCC(=O)N[C@H](CN2CCCC2)[C@@H](O)c2ccc3c(c2)OCCO3)cc1 [Compound 676],3000 to 10000 nM
3,COc1ccc(OCCC(=O)N[C@@H](CN2CCCC2)[C@@H](O)c2ccc3c(c2)OCCO3)cc1 [Compound 674],3000 to 10000 nM

# Same assay, conditions: 48 h; Table 1; B16-FO cells, 2 days incubation; read-out: IC50_uM_Mean
row,SMILES,IC50
1,"COc1ccc(OCCC(=O)N[C@H](CN2CCCC2)[C@H](O)c2ccc3c(c2)OCCO3)cc1 [Compound 61, N-((1R,2R)-1-(2,3-dihydrobenzo[β][1,4]dioxin-6-yl)-1-hydroxy-3-(pyrrolidin-1-yl)propan-2-yl)-3-(4-methoxyphenoxy)propanamide]",≤ 100 nM

# Same assay, conditions: Table 1; B16-FO cells, 2 days incubation; read-out: IC50_uM_Mean
row,SMILES,IC50
1,"CC(=O)CCc1ccc(OCCC(=O)N[C@H](CN2CCCC2)[C@H](O)c2ccc3c(c2)OCCO3)cc1 [Compound 193, N-((1R,2R)-1-(2,3-dihydrobenzo[b][1,4]dioxin-6-yl)-1-hydroxy-3-(pyrrolidin-1-yl)propan-2-yl)-3-(4-(3-oxobutyl)phenoxy)propanamide(2R,3R)-2,3-dihydroxysuccinate]",100 to 1000 nM
